Measurements reported in paper PMC5514907, “Targeting of the breast cancer microenvironment with a potent and linkable oxindole based antiangiogenic small molecule” (Oncotarget, 2017).
Entries after “also recorded” stand apart in the source; their conditions may differ. Where two headings read alike, the source gives them in different places.

Key:
[1] = Hematotoxicity, blood analysis; conditions: 100 μmol/Kg daily IP, one week; vehicle 2.90 ± 0.8
PDGFR-β [2] = target: T1, PDGFR-β (Mus musculus, UniProt P05622); assay: Cellular ligand-dependent autophosphorylation assay (Western blot) in NIH/3T3; format: cell-based; conditions: NIH/3T3, PDGF-BB stimulated, ± SD
T1 construct: host or cells: NIH/3T3

HCC1954 xenograft [3] = conditions: HCC1954, 100 μmol/Kg/day IP; for average tumor size at d18: 18 days, vehicle 428 ± 101; for neo-angiogenesis upon sacrifice: d18; for average tumor weight upon sacrifice (d18): vehicle 0.26 ± 0.07
[4] = set-up: method as in PMID 26645560; conditions: IP, equimolar dose, previous results ref 18; cited from earlier work
ZR75-1 = assay: MTT cytotoxicity assay; format: cell-based; conditions: Homo sapiens, ZR-75-1
[5] = Cardiotoxicity, echocardiography of LV function; format: in vivo, C57BL/6 female mice; conditions: for %FS (Fractional Shortening) at one week post treatment: 100 μmol/Kg daily IP, vehicle 46.34 ± 0.56
in vivo [6] = conditions: female, NOD/SCID, mouse, blood, ip, 100 μmol/Kg
[7] = test system: phosphorylation status of 18 kinases; assay: In vivo kinase activity (PathScan intracellular signaling array) in HCC1954 tumor extracts; set-up: species or system NOD/SCID mice; conditions: HCC1954 tumors, d18
HCC1954 = assay: MTT cytotoxicity assay; format: cell-based; conditions: Homo sapiens
in vivo [8] = conditions: female, NOD/SCID, mouse, blood, ip, 100 μmol/Kg; remark: listed apart in the source
[9] = test system: E0771 BrCa murine cell line; assay: In vivo antitumor efficacy, syngeneic model, ectopic implantation; set-up: species or system C57BL/6 mice; conditions: 100 μmol/Kg daily IP
Description: (§1) Despite the efficacy and favourable safety profile of SAP in xenografted models of primary BrCa, a critical question that remained was its evaluation in a more clinically relevant disease model of BrCa that would involve interaction of cancer with the immune system, which is crucial for the progression of the disease.

MCF7 = assay: MTT cytotoxicity assay; format: cell-based; conditions: Homo sapiens
SKBR3 = assay: MTT cytotoxicity assay; format: cell-based; conditions: Homo sapiens, SK-BR-3
[10] = test system: E0771 BrCa murine cell line; assay: In vivo antitumor efficacy, syngeneic model, orthotopic implantation; set-up: species or system C57BL/6 mice; conditions: 100 μmol/Kg daily IP
Description: as §1

T47D = assay: MTT cytotoxicity assay; format: cell-based; conditions: Homo sapiens
FLT3 = target: T2, FLT3 (Homo sapiens, UniProt P36888); assay: Biochemical tyrosine kinase assay (trans-phosphorylation, GST-fusion protein); conditions: in vitro kinase activity, ± SD
T2 construct: 571–993; purchased Sigma Aldrich F6432

EGFR = target: T3, EGFR (Homo sapiens, UniProt P00533); assay: Biochemical tyrosine kinase assay (trans-phosphorylation, GST-fusion protein), negative control; conditions: in vitro kinase activity
T3 construct: 695-end; purchased Sigma Aldrich SRP5023

KIT = target: T4, KIT (Homo sapiens, UniProt P10721); assay: Biochemical tyrosine kinase assay (trans-phosphorylation, GST-fusion protein); conditions: in vitro kinase activity, ± SD
T4 construct: 544-end; purchased Sigma Aldrich C0624

[11] = Pharmacokinetic evaluation in blood by LC-MS/MS; format: in vivo, female NOD/SCID mice; conditions: for AUC(0-t) / Tmax / Cmax: 100 umol/kg; for AUC(0-t) / Cmax: ± S.D.; for AUC(0-t): read-out: AUC0-24
Experimental: The in vitro efficacy of SAP was followed by its pharmacokinetic evaluation in mice. Initially, the PK parameters of SAP were compared in an oral versus IP administration (Figure 3).
Figure 3 Pharmacokinetic evaluation of SAP Female NOD/SCID mice (n = 6) were dosed per os or IP with SAP (100 μmol/Kg) and blood samples were collected at selected time points. Drug levels of SAP were monitored by LC-MS/MS. The AUC for each treatment was calculated as a measure of drug exposure over time. TEXT PRINTED IN THE PICTURE: SAP: Cmax (μmol/L) (± S.D.): 0.2 (± 0.1) (Administration Route: per os; Dose (μmol/Kg): 100); tmax (h): 1 (Administration Route: per os; Dose (μmol/Kg): 100); AUC0-24 (± S.D.) (h) x (μmol/L): 2.5 (± 2.3) (Administration Route: per os; Dose (μmol/Kg): 100); Cmax (μmol/L) (± S.D.): 27 (± 3.6) (Administration Route: Intraperitoneal; Dose (μmol/Kg): 100); tmax (h): 0.25 (Administration Route: Intraperitoneal; Dose (μmol/Kg): 100); AUC0-24 (± S.D.) (h) x (μmol/L): 50.3 (± 15.3) (Administration Route: Intraperitoneal; Dose (μmol/Kg): 100)
All animal procedures were approved by the Bioethical Committee of BRFAA based on the European Directive 86/609. For pharmacokinetic studies, female NOD/SCID mice (Charles River, Italy) were used (8–10 weeks old, n = 6 per group). Dosing solutions of SAP (100 μmol/Kg) were prepared in 20% 2-hydroxypropyl β-Cyclodextrin in sterile water (HP-b-CD). SAP was administered intraperitoneally (IP) or orally and blood samples were collected and prepared as described previously.

[12] = test system: Tg(kdrl:gfp)^s843 transgenic embryos; format: in vivo; conditions: for intersomitic vessel (ISV) formation / angiogenic sprouting at 48 hpf: treated from 24 to 48 hpf
RET = target: T5, RET (Homo sapiens, UniProt P07949); assay: Biochemical tyrosine kinase assay (trans-phosphorylation, GST-fusion protein); conditions: in vitro kinase activity, ± SD
T5 construct: 658-end; purchased Sigma Aldrich R7782

[13] = test system: panel of BrCa cell lines and HUVEC; assay: MTT cytotoxicity assay, summary over all cell lines; format: cell-based; conditions: Homo sapiens, range over six BrCa cell lines and HUVEC
[14] = target: VEGFR-2, PDGFR-β, KIT, FLT3 and RET; assay: Biochemical tyrosine kinase assay, RTK panel summary; conditions: range over the RTK targets of sunitinib; read-out: IC50 over most of the RTKs
[15] = Whole embryo LC-MS/MS biodistribution (bioaccumulation); format: in vivo, zebrafish; conditions: 24h post drug exposure, 50 μM, data not shown
MDA-MB-231 = assay: Wound healing/migration assay; format: cell-based; conditions: various concentrations, 24 hours
VEGFR-2 [16] = target: T6, VEGFR-2 (Homo sapiens, UniProt P35968); assay: Cellular ligand-dependent autophosphorylation assay (Western blot) in HUVEC; format: cell-based; set-up: host or cells: HUVEC; conditions: VEGF165 stimulated, ± SD
Target sequence in this assay (P35968 20-1356): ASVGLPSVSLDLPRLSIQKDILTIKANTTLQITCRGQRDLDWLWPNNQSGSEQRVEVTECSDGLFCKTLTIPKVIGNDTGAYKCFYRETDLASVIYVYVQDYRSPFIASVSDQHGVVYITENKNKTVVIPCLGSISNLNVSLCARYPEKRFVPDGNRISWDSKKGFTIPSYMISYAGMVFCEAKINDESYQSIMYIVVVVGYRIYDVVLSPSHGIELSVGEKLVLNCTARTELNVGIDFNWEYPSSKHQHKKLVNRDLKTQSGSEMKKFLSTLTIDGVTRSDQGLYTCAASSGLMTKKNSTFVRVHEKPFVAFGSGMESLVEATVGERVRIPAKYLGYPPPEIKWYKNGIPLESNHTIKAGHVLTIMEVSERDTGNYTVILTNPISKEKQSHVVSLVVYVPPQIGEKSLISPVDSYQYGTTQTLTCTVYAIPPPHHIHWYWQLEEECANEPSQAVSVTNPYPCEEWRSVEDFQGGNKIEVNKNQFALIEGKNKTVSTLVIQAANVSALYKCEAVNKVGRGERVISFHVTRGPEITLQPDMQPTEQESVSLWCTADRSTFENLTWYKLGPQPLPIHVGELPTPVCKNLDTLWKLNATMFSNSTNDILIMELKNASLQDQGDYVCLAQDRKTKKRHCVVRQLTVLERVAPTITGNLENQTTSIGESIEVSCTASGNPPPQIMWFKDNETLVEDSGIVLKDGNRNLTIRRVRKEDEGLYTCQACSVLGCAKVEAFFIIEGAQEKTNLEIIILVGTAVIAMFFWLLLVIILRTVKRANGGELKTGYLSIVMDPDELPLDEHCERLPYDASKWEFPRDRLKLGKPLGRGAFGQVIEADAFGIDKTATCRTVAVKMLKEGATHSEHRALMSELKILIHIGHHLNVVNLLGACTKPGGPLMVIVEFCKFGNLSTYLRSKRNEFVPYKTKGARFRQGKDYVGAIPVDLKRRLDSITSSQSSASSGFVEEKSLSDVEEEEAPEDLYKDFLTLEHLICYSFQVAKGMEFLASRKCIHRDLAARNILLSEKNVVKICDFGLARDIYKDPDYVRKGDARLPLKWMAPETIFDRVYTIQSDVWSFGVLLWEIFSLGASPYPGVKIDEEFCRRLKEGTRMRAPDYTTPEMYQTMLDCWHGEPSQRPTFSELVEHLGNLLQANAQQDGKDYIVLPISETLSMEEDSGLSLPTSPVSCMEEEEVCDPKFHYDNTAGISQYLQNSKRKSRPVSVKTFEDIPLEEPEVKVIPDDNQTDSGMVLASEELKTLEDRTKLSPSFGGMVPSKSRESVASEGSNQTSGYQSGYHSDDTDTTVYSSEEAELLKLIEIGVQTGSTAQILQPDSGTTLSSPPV

PDGFR-β [17] = target: T7, PDGFR-β (Homo sapiens, UniProt P09619); assay: Biochemical tyrosine kinase assay (trans-phosphorylation, GST-fusion protein); conditions: in vitro kinase activity, ± SD; read-out: IC50 PDGFR-b
T7 construct: 557-end; purchased Sigma Aldrich G8671

HUVEC = assay: MTT cytotoxicity assay; format: cell-based; conditions: Homo sapiens
HCC1954 xenograft [18] = assay: Immunohistochemistry (Ki-67, CD31) of tumor sections; format: in vivo, NOD/SCID mice
VEGFR-2 [19] = target: T6, VEGFR-2; assay: Biochemical tyrosine kinase assay (trans-phosphorylation, GST-fusion protein); set-up: 789-end; purchased Sigma Aldrich K2643; conditions: in vitro kinase activity, ± SD
Target sequence in this assay (P35968 789-1356 limits assumed): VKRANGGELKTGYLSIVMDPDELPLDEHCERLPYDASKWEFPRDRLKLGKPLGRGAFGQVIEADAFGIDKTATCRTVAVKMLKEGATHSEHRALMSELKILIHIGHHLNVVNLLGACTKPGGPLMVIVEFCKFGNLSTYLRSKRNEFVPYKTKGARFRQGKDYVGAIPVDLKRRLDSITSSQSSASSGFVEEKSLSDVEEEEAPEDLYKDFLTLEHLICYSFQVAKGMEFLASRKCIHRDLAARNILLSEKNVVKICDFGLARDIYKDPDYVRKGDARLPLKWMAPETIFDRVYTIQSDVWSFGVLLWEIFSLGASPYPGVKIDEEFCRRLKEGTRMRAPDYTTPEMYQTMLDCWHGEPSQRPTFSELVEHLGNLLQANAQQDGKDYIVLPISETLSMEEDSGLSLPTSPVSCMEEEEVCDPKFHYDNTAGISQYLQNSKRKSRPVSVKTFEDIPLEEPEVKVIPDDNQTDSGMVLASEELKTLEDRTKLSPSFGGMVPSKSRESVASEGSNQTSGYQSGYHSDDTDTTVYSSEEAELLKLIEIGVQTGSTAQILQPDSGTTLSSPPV

[20] = female, NOD/SCID, mouse, ip, intraperitoneal, blood
[21] = female, NOD/SCID, mouse, po, per os, blood

T1 sequence (P05622 32-1098): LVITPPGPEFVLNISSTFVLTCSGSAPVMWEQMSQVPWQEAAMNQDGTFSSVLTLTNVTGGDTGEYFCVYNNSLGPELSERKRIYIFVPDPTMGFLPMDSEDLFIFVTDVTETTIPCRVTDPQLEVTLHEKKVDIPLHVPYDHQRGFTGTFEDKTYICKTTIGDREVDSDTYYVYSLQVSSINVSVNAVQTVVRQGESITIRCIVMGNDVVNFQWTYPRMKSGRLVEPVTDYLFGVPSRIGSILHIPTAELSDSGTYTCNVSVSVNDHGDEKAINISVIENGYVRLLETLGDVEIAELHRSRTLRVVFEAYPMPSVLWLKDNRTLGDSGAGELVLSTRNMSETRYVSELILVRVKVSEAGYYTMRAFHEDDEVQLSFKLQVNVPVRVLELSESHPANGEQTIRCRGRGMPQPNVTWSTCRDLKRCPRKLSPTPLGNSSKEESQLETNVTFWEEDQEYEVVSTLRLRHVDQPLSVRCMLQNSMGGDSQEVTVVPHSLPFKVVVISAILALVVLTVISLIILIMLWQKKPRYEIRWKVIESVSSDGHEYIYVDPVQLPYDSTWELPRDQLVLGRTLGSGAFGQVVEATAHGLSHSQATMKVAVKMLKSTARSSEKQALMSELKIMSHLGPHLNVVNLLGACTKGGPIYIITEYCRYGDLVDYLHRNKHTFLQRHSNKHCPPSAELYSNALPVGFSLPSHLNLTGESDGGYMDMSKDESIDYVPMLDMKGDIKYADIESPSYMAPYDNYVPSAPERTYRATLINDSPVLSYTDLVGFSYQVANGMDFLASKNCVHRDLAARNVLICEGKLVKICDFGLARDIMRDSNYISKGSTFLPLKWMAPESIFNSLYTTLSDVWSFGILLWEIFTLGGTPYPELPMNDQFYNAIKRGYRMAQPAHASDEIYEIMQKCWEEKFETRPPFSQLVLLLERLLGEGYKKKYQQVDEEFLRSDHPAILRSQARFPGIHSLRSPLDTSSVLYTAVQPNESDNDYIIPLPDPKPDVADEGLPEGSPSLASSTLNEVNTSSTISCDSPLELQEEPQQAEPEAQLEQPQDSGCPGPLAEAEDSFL
T2 sequence (P36888 571-993): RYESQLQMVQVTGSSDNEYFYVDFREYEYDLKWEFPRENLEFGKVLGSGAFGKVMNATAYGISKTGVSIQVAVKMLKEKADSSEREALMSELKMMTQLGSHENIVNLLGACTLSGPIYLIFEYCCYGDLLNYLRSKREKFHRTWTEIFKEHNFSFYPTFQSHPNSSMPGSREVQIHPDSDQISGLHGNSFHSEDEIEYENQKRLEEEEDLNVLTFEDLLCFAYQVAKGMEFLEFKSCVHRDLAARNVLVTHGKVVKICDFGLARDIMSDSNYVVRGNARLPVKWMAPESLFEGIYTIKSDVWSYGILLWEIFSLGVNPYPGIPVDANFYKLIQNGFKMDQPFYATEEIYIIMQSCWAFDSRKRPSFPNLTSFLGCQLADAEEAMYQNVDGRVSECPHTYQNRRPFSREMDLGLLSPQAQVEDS
T5 sequence (P07949 658-1063 limits assumed): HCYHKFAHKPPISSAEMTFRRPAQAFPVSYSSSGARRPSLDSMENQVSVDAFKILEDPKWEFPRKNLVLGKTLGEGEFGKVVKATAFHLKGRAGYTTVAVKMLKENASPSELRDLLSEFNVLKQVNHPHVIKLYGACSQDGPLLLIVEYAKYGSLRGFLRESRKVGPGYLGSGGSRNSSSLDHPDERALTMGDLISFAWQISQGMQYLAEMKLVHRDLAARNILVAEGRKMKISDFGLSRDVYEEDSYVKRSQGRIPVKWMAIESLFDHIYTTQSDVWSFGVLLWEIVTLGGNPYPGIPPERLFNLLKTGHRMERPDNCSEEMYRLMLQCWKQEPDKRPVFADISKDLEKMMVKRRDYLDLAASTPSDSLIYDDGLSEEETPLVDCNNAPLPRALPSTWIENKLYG
T3 sequence (P00533 695-1210 limits assumed): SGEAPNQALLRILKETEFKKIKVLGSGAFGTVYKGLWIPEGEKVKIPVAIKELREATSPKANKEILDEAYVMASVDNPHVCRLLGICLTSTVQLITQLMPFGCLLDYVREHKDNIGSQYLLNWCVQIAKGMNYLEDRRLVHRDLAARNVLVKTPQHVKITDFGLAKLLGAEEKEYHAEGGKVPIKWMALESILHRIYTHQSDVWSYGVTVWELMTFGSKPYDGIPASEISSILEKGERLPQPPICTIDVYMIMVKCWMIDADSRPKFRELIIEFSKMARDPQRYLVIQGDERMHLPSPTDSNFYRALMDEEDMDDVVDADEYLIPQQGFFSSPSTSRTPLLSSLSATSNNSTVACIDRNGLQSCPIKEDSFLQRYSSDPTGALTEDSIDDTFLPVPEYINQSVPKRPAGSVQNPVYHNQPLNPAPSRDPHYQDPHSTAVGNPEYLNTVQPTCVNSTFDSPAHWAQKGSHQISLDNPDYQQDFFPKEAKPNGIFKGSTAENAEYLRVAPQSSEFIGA
T7 sequence (P09619 557-1106 limits assumed): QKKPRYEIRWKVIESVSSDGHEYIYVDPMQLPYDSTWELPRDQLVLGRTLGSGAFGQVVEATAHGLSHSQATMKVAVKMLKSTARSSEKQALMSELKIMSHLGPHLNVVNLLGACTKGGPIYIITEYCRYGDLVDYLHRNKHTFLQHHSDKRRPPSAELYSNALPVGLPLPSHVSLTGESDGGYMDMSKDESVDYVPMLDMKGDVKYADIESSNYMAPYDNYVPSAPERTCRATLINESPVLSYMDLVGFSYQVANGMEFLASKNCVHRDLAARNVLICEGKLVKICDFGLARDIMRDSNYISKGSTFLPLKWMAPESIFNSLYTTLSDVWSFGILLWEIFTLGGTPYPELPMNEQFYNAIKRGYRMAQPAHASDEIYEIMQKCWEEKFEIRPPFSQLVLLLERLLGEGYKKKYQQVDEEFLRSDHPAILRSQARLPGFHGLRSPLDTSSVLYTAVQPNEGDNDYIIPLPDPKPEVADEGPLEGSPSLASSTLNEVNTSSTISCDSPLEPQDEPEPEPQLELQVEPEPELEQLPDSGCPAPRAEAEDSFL

CCN(CC)CCNC(=O)c1c(C)[nH]c(/C=C2\C(=O)Nc3ccc(F)cc32)c1C [sunitinib, reference compound]
white blood cell populations [1]: 2.24 ± 0.5 × 10^3 cells
IC50 (PDGFR-β [2]): 0.072 ± 0.019 µM
average tumor size at d18 (HCC1954 xenograft [3]): 152 ± 57 mm^3
neo-angiogenesis upon sacrifice (HCC1954 xenograft [3]): only traces of newly formed blood vessels
average tumor weight upon sacrifice (d18) (HCC1954 xenograft [3]): 0.07 ± 0.03 g
AUC0−24 h [4]: 21.4 ± 3.6 h x μmol/L
Cmax [4]: 6.5 ± 0.9 µM
Tmax [4]: 15 min
IC50 (ZR75-1): 11.4 µM
%FS (Fractional Shortening) at one week post treatment [5]: 45.42 ± 0.11%
concentration at 1 h (in vivo [6]): 10.3 ± 3.7 µM
phosphorylation status of kinases in tumor extracts versus vehicle [7]: marked downregulation of pErk1/2 (Thr202/Tyr204), pAkt (Ser473) and pGSK3 (Ser9)
IC50 (HCC1954): 13.9 µM
concentration at 1 h (in vivo [8]): 10.8 ± 2.1 µM
tumour growth versus vehicle [9]: significant tumour growth inhibition
IC50 (MCF7): 11.2 µM
IC50 (SKBR3): 13.2 µM
tumour growth versus vehicle [10]: significant tumour growth inhibition
IC50 (T47D): 11.5 µM

Cc1[nH]c(/C=C2\C(=O)Nc3ccc(F)cc32)c(C)c1C(=O)NCCN1CCNCC1 [SAP]
white blood cell populations [1]: 2.54 ± 1.0 × 10^3 cells
IC50 (FLT3): 0.069 µM
IC50 (EGFR): > 10 µM
IC50 (PDGFR-β [2]): 0.076 ± 0.022 µM
average tumor size at d18 (HCC1954 xenograft [3]): 76 ± 52 mm^3
neo-angiogenesis upon sacrifice (HCC1954 xenograft [3]): only traces of newly formed blood vessels
average tumor weight upon sacrifice (d18) (HCC1954 xenograft [3]): 0.05 ± 0.02 g
IC50 (KIT): 0.061 µM
concentration at 8 h ([11]; female, NOD/SCID, mouse, ip, 100 μmol/Kg, intraperitoneal, 100 umol/Kg, blood, 8 h post-dose, read-out: C8 h): 0.93 ± 0.3 µM
AUC(0-t) ([11]; female, NOD/SCID, mouse, ip, intraperitoneal, 100 μmol/Kg, blood): 50.3 ± 15.3 µM·h
Tmax [11, 20]: 15 min
Cmax [11, 20]: 27 ± 3.6 µM
AUC(0-t) ([11]; female, NOD/SCID, mouse, po, per os, 100 μmol/Kg, blood): 2.5 ± 2.3 µM·h
Tmax [11, 21]: 60 min
Cmax [11, 21]: 0.2 ± 0.1 µM
time for which concentrations of at least 0.1 μmol/L are sustained post-dose ([11]; intraperitoneal, 100 umol/Kg): more than 8 h
signs of discomfort or overt toxicity in treated mice ([11]; single dose 100 μmol/Kg, per os or IP): No signs of discomfort or overt toxicity
toxic or off-target morphological phenotypes ([12]; 50 μM, 24h treatment): No toxic or off-target morphological phenotypes
intersomitic vessel (ISV) formation / angiogenic sprouting at 48 hpf ([12]; 50 μM): uniform GFP expression in intersomitic vessels; also recorded: minor ISV formation inhibition
intersomitic vessel (ISV) formation / angiogenic sprouting at 48 hpf ([12]; 100 μM): inhibited angiogenic sprouting; also recorded: more profound
IC50 (RET): 0.102 µM
IC50 [13]: 6.5 to 15.8 µM
IC50 (ZR75-1): 14.1 µM
%FS (Fractional Shortening) at one week post treatment [5]: 42.38 ± 0.76%
%FS (Fractional Shortening), baseline measurement ([5]; before treatment): 47.48 ± 0.91%
IC50 [14]: 0.061 to 0.102 µM
uptake from fish embryos [15]: ~50%
MDA-MB-231 migration in wound healing assay (MDA-MB-231): inhibited MDA-MB-231 migration
IC50 (VEGFR-2 [16]): 0.052 ± 0.014 µM
IC50 (PDGFR-β [17]): 0.093 µM
phosphorylation status of kinases in tumor extracts versus vehicle [7]: marked downregulation of pErk1/2 (Thr202/Tyr204), pAkt (Ser473) and pGSK3 (Ser9)
IC50 (HUVEC): 14.2 µM
IC50 (HCC1954): 13.5 µM
average number of CD31+ cells in tumor sections (HCC1954 xenograft [18]; d18, vehicle 42.4 ± 8.3): 16.6 ± 7.1
Ki-67 assessed PI (proliferation index) (HCC1954 xenograft [18]; d18, vehicle 82.3 ± 11.1): 19.2 ± 4.9%
IC50 (VEGFR-2 [19]): 0.075 µM
tumour growth versus vehicle [9]: significant tumour growth inhibition
IC50 (MCF7): 10.3 µM
IC50 (SKBR3): 15.5 µM
tumour growth versus vehicle [10]: significant tumour growth inhibition
IC50 (T47D): 6.5 µM
